In the supplement of paper PMC10627819:

What was measured:
[1] = tested on: S. pneumoniae D39V; test: fitness (endpoint OD595 vs no drug) (fraction); higher = more growth; details: main component drawn
Procedure, shortened: (§1)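 Bacterial fitness was scored as optical density at the stationary-phase transition relative to the robust mean of no-drug control wells. Scores are capped at 1. The growth data were OD595 readings every 30 min for 14 h at 37 °C, background-subtracted against the first reading, from 384-well plates inoculated at OD595 0.01 in TSB, LB Lennox or CY.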

[2] = tested on: B. subtilis 168; test: as above; details: main component drawn
Procedure, shortened: as §1
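Also: OD595 on entry to stationary phase over no-drug wells; at most 1.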

CN(C)[C@@H]1C(O)=C(C(N)=O)C(=O)[C@@]2(O)C(O)=C3C(=O)c4c(O)ccc(Cl)c4[C@@](C)(O)[C@H]3C[C@@H]12 [Chlortetracycline] + CCC(C)C1C(=O)NC(=C)C(=O)NC(C(=O)NC(CSCC(C(=O)N1)NC(=O)/C(=C/C)/NC(=O)C(C(C)CC)N)C(=O)NC2C(SCC(NC(=O)CNC(=O)C3CCCN3C2=O)C(=O)NC(CCCCN)C(=O)NC4C(SCC(NC(=O)CNC(=O)C(NC(=O)C(NC(=O)C(NC(=O)CNC4=O)C)CC(C)C)CCSC)C(=O)NC(CC(=O)N)C(=O)NC(CCSC)C(=O)NC(CCCCN)C(=O)NC5C(SCC6C(=O)NC(C(=O)NC(CSC(C(C(=O)N6)NC(=O)C(NC5=O)C)C)C(=O)NC(CO)C(=O)NC(C(C)CC)C(=O)NC(CC7=CN=CN7)C(=O)NC(C(C)C)C(=O)NC(=C)C(=O)NC(CCCCN)C(=O)O)CC8=CN=CN8)C)C)C)CC(C)C [Nisin]
Details | fitness
[1], first compound 0.012 µg/mL, partner 0.4275 µg/mL | 0.973
[1], first compound 0.012 µg/mL, partner 0.855 µg/mL | 0.804
[1], first compound 0.012 µg/mL, partner 1.71 µg/mL | 0.0763
[1], first compound 0.024 µg/mL, partner 0.4275 µg/mL | 0.909
[1], first compound 0.024 µg/mL, partner 0.855 µg/mL | 0.526
[1], first compound 0.024 µg/mL, partner 1.71 µg/mL | 0.0832
[1], first compound 0.048 µg/mL, partner 0.4275 µg/mL | 0.766
[1], first compound 0.048 µg/mL, partner 1.71 µg/mL | 0.0976
[1], first compound 0.375 µg/mL, partner 1.6 µg/mL | 0.014
[1], first compound 0.375 µg/mL, partner 3.2 µg/mL | 0.0066
[1], first compound 0.375 µg/mL, partner 6.4 µg/mL | 0.0151
[1], first compound 0.75 µg/mL, partner 1.6 µg/mL | 0.0251
[1], first compound 0.75 µg/mL, partner 3.2 µg/mL | 0.0392
[1], first compound 0.75 µg/mL, partner 6.4 µg/mL | 0.0332
[1], first compound 1.5 µg/mL, partner 1.6 µg/mL | 0.0279
[1], first compound 1.5 µg/mL, partner 3.2 µg/mL | 0.0271
[1], first compound 1.5 µg/mL, partner 6.4 µg/mL | 0.064
[2], first compound 0.0475 µg/mL, partner 0.5 µg/mL | 0.902
[2], first compound 0.0475 µg/mL, partner 1 µg/mL | 0.849
[2], first compound 0.0475 µg/mL, partner 2 µg/mL | 0.452
[2], first compound 0.095 µg/mL, partner 0.5 µg/mL | 0.794
[2], first compound 0.095 µg/mL, partner 1 µg/mL | 0.733
[2], first compound 0.095 µg/mL, partner 2 µg/mL | 0.387
[2], first compound 0.19 µg/mL, partner 0.5 µg/mL | 0.605
[2], first compound 0.19 µg/mL, partner 1 µg/mL | 0.454
[2], first compound 0.19 µg/mL, partner 2 µg/mL | 0.116

fitness, [2], one replicate
Details | partner 1.25 µg/mL | partner 1.6 µg/mL | partner 2.5 µg/mL | partner 3.2 µg/mL | partner 4 µg/mL | partner 5 µg/mL | partner 6.4 µg/mL | partner 8 µg/mL | partner 16 µg/mL
first compound 0.0475 µg/mL | 0.902 | 0.609 | 0.642 | 0.0268 | 0.0247 | 0.0756 | 0.0534 | 0.006 | 0
first compound 0.095 µg/mL | 0.805 | 0.49 | 0.607 | 0.0306 | 0.0278 | 0.0684 | 0.0417 | 0.0191 | 0.0123
first compound 0.19 µg/mL | 0.686 | 0.0405 | 0.338 | 0.0435 | 0.0329 | 0.0442 | 0.0404 | 0.0227 | 0.0213
